From PMC10526274, “Epithelial-Immune Cell Crosstalk Determines the Activation of Immune Cells In Vitro by the Human Cathelicidin LL-37 at Low Physiological Concentrations” (Biomolecules, 2023)
Several values for one entry are separate records, joined by “and”; a condition that tells them apart may be missing. Equal entries are not always repeated.

Tested on: primary blood monocytes
Test: Multiplex xMAP cytokine levels, primary blood monocytes alone stimulated with LL-37
Assay type: cell-based, human
Conditions: 1 µM LL-37, 24 h
Method: Peripheral blood mononuclear cells (PBMCs) from a healthy donor were purchased from the American Type Culture Collection (ATCC PCS-800-011). Blood monocytes were isolated from PBMCs by plastic adhesion. Mature monocyte-derived dendritic cells (moDCs) were generated in vitro from peripheral blood monocytes, according to Nair et al.. Briefly, monocytes were cultured in a humidified CO2-incubator (5% CO2, 37 °C) in the complete RPMI-1640 medium (Gibco) with 10% FBS, antibiotics, and supplemented with a cytokine cocktail containing 500 U/mL rhIL-4 and 800 U/mL rhGM-CSF (both Sci-Store, Moscow, Russia). On the third day, the medium was replaced by the same fresh medium with FBS, antibiotics, and the cytokine cocktail. Induction of maturation of the immature monocyte-derived dendritic cells was performed on the 5th day by replacing the medium with the complete RPMI-1640 medium (Gibco) with 10% FBS and antibiotics, supplemented with a cytokine cocktail containing 500 U/mL rhIL-4, 800 U/mL rhGM-CSF (both Sci-Store, Moscow, Russia), and 100 U/mL rhTNF-α (Sigma-Aldrich), and subjected to subsequent incubation of the culture for 4 more days.
Primary blood monocytes, moDCs, and NKT cells were seeded in 600 µL of complete RPMI-1640 with 10% Human AB serum (Capricorn Scientific, Ebsdorfergrund, Germany) and supplemented with 1X antibiotic–antimycotic solution into the wells of 24-well plates at a density of 3–7 × 10^5 cells/well 24 h before the experiment. Then, 24 h later, the medium in each well was replaced by the same medium with 1 µM of LL-37 for the sample wells or fresh medium alone for the control wells, and the permeable inserts with the Caco-2 monolayer with TEER > 400 Ω × cm^2, containing 400 μL of the complete medium in their apical chamber, were immediately placed into the appropriate wells. Also, inserts with the Caco-2 monolayer were placed in cell-free wells of 24-well plates in the same complete RPMI-1640 medium with or without 1 µM of LL-37 as controls. Cells were kept in a CO2-incubator (5% CO2, 37 °C) for another 24 h. Then, culture medium from each well was collected, centrifuged, and frozen at −70 °C.
To quantitatively evaluate a broad spectrum of analytes secreted by human cell cultures at the protein level, multiplex xMAP technology was used. The chosen panel (cat. #HCYTA-60K-PX48, Merck, Darmstadt, Germany) included 48 different magnetic beads with primary antibodies to the following cytokines, chemokines, and growth factors: CCL11 (Eotaxin-1), Flt-3 ligand, CX3CL1 (Fractalkine), sCD40L, FGF-2, EGF, GROα, GM-CSF, G-CSF, IL-1RA, IL-1α, IL-1β, IL-2, IL-3, IL-4, IL-5, IL-6, IL-7, CXCL8 (IL-8), IL-9, IL-10, IL-12p40, IL-12p70, IL-13, IL-15, IL-17A (CTLA8), IL-17E (IL-25), IL-17F, IL-18, IL-22, IL-27, IFNγ, IFNα2, CXCL10 (IP-10), CCL2 (MCP-1), CCL7 (MCP-3), CCL22 (MDC), CXCL9 (MIG), CCL3 (MIP-1α), CCL4 (MIP-1β), CCL5 (RANTES), M-CSF, PDGF-AA, PDGF-AB/BB, TNFα, TNFβ, TGFα, and VEGF-A. The assay was performed in accordance with the manufacturer’s instructions with overnight incubation of the samples with primary antibodies, and the plate was read on a MAGPIX System (Merck) using the xPONENT 4.2 software (Merck). The acquired fluorescence data were analyzed by the MILLIPLEX Analyst v5.1 software (Merck), which realized an advanced curve-fitting algorithm. Levels of the analytes in control and experimental samples were compared with an unpaired two-sample t-test using GraphPad Prism v.8.0.1 (GraphPad Software, Inc., San Diego, CA, USA). The p-values ≤ 0.05 were considered significant.

Substance: LL-37: the only human cathelicidin, host defense antimicrobial peptide of 37 a.a. residues, produced by solid-phase peptide synthesis
- RANTES level (n=2, control 1.06): 181.22 pg/mL
- FLT-3L level (n=2, control 1.18): 0.93 pg/mL
- IL-2 level (n=2, control 1.49): 0.99 pg/mL
- IL-18 level (n=2, control 1.74): 1.22 pg/mL
- IFNg level (n=2, control 1.82): 1.8 pg/mL
- IL-4 level (n=2, control 1.92): 1.63 pg/mL
- IL-17A level (n=2, control 2.18): 3.05 pg/mL
- IL-15 level (n=2, control 2.88): 1.82 pg/mL
- GM-CSF level (n=2, control 3.83): 4.97 pg/mL
- TGF-a level (n=2, control 4.84): 3.88 pg/mL
- IL-9 level (n=2, control 6.65): 6.65 pg/mL
- TNFb level (n=2, control 10.12): 11.76 pg/mL
- IFNa2 level (n=2, control 15.98): 11.65 pg/mL
- EGF level (n=2, control 18.24): 17.26 pg/mL
- IL-1a level (n=2, control 18.92): 25.51 pg/mL
- IL-10 level (n=2, control 22.54, p = 0.23): 23.6 pg/mL and 23.64 pg/mL
- IL-13 level (n=2, control 25.51): 23.32 pg/mL
- IL-1b level (n=2, control 25.75, p = 0.094): 32 pg/mL and 32.49 pg/mL
- IL-22 level (n=2, control 27.2): 27.2 pg/mL
- Fractalkine level (n=2, control 28.72): 25.92 pg/mL
- M-GSF level (n=2, control 32.5): 62.71 pg/mL
- IL-12 (p40) level (n=2, control 32.89): 37.68 pg/mL
- VEGFa level (n=2, control 35.58): 36.32 pg/mL
- MIP-1a level (n=2, control 45.5, p = 0.0001): 109 pg/mL and 109.63 pg/mL
- FGF-2 level (n=2, control 52.5): 47.27 pg/mL
- PDGF-AA level (n=2, control 62.71): 47.99 pg/mL
- IL-27 level (n=2, control 63.66): 67.29 pg/mL
- MIP-1b level (n=2, control 78.19, p = 0.0004): 2750 pg/mL
- IL-1RA level (n=2, control 86.47): 65.97 pg/mL
- sCD40L level (n=2, control 108.76): 102.18 pg/mL
- TNFa level (n=2, control 110.45, p = 0.15): 123 pg/mL and 123.49 pg/mL
- G-CSF level (n=2, control 121.45, p = 0.002): 220 pg/mL and 220.28 pg/mL
- MIG level (n=2, control 606.02, p = 0.003): 342 pg/mL and 342.19 pg/mL
- PDGF-AB/BB level (n=2, control 1327): 1070 pg/mL
- IP-10 level (n=2, control 1716): 11.29 pg/mL
- MDC level (n=2, control 3407): 3208 pg/mL
- IL-6 level (n=2, control 4145): 4861 pg/mL
- MCP-3 level (n=2, control 4963): 3343 pg/mL
- GROa level (n=2, control 5512): 5987 pg/mL
- MCP-1 level (n=2, control 8325): 7953 pg/mL
- IL-7 level (n=2, control <0.30): <0.30↓ pg/ml
- IL-5 level (n=2, control <0.35): <0.35↓ pg/ml
- IL-3 level (n=2, control <0.55): <0.55↓ pg/ml
- IL-12 (p70) level (n=2, control <1.71): <1.71↓ pg/ml
- Eotaxin level (n=2, control <2.91): <2.91↓ pg/ml
- IL-17F level (n=2, control <12.19): <12.19↓ pg/ml
- IL-17E/IL-25 level (n=2, control <19.43): <19.43↓ pg/ml
- IL-8 level (n=2, control >21942): >21942↑ pg/ml
